According to patent publication US20250041179A1, “ANTIMICROBIAL COMBINATIONS” (SYMRISE AG, priority 2021, published 2025):

How the values were obtained:
Conditions in all cases: substance alone 0.5% w/w
[1] = test system: E. coli; assay: Preservative efficacy test (Ph. Eur., adjusted inoculum) in O/W anionic emulsion; assay type: cell-based, Escherichia coli
Protocol: (§1) Material was tested in predesigned standardised cosmetic formulations either as oil-in-water anionic emulsion (Table 2), shampoo (Table 3), or wet wipe solution (Table 4). The antimicrobial actives were dissolved or mixed with the standardised cosmetic formulations, leading to the indicated test concentrations (in w/w %, cf. […] To determine synergistic indices, raw values for bacterial of fungal colony counts were used. [table] […] Steinberg D. C. (2000): Measuring Synergy. In Cosmetics & Toiletries, 115) was used: […]

[2] = test system: A. brasiliensis; assay: Preservative efficacy test (Ph. Eur., adjusted inoculum) in shampoo formulation; assay type: cell-based, Aspergillus brasiliensis
Protocol: (§2) Preservative efficacy tests were performed according to the European Pharmacopoeia with adjusted inoculation numbers (10^6-10^7 cells of suitable bacteria or fungi). Material was tested in predesigned standardised cosmetic formulations either as oil-in-water anionic emulsion (Table 2), shampoo (Table 3), or wet wipe solution (Table 4). The antimicrobial actives were dissolved or mixed with the standardised cosmetic formulations, leading to the indicated test concentrations (in w/w %, cf. Tables 5 to 12 below). To determine synergistic indices, raw values for bacterial of fungal colony counts were used.
(§3) [formula] • where • SI is the synergism index according to Kull • CA is the cell count for substance A (also “count A”) • CB is the cell count for substance B (also “count B”) • Cmixture is the cell count for the mixture of substance A and B (also “count mix”) • PA is the proportion of the substance A in the mixture in relation to the concentration tested alone • PB is the proportion of the substance B in the mixture in relation to the concentration tested alone

[3] = test system: S. aureus; assay: Preservative efficacy test (Ph. Eur., adjusted inoculum) in O/W anionic emulsion; assay type: cell-based, Staphylococcus aureus
Protocol: as §1

[4] = test system: E. coli; assay: Preservative efficacy test (Ph. Eur., adjusted inoculum) in shampoo formulation; assay type: cell-based, Escherichia coli
Protocol: as §2
(§4) To calculate the synergism between the indicated antimicrobial actives (cf. preservative efficacy tests below), the Kull equation (Kull et al., Applied Microbiology 1961, 9 (6), pp. 538-541, DOI: 10.1128/am.9.6.538-541.1961.; Steinberg D. C. (2000): Measuring Synergy. In Cosmetics & Toiletries, 115) was used:
as §3

[5] = test system: S. aureus; assay: as above; assay type: cell-based, Staphylococcus aureus
Protocol: as §2, §4, §3

[6] = test system: P. aeruginosa; assay: as above; assay type: cell-based, Pseudomonas aeruginosa
Protocol: as §2, §3

[7] = test system: C. albicans; assay: as above; assay type: cell-based, Candida albicans
Protocol: as §2, §3

## CCCCCCCC(=O)OCCCO [3-Hydroxypropyl caprylate, 3-hydroxypropyl caprylate]
[1]; 2 days
  Absolute cell counts 2 days: 3.30E+06
  Relative cell counts 2 days: 0.9706
[1]; 7 days
  Absolute cell counts 7 days: 2.60E+04
  Relative cell counts 7 days: 0.0076
[1]; 14 days
  Absolute cell counts 14 days: 1
  Relative cell counts 14 days: 0.0000
[1]; 28 days
  Absolute cell counts 28 days: 1
  Relative cell counts 28 days: 0.0000
[2]; 2 days
  Absolute cell counts 2 days: 3.00E+06
  Relative cell counts 2 days: 0.9091
[2]; 7 days
  Absolute cell counts 7 days: 3.80E+06
  Relative cell counts 7 days: 1.1515
[2]; 14 days
  Absolute cell counts 14 days: 4.50E+06
  Relative cell counts 14 days: 1.3636
[2]; 28 days
  Absolute cell counts 28 days: 8.10E+05
  Relative cell counts 28 days: 0.2455
[3]; 2 days
  Absolute cell counts 2 days: 2.10E+05
  Relative cell counts 2 days: 0.0382
[3]; 7 days
  Absolute cell counts 7 days: 1.80E+02
  Relative cell counts 7 days: 0.0000
[3]; 14 days
  Absolute cell counts 14 days: 1
  Relative cell counts 14 days: 0.0000
[3]; 28 days
  Absolute cell counts 28 days: 1
  Relative cell counts 28 days: 0.0000
[4]; 2 days
  Absolute cell counts 2 days: 1.80E+06
  Relative cell counts 2 days: 0.5806
[4]; 7 days
  Absolute cell counts 7 days: 2.00E+06
  Relative cell counts 7 days: 0.6452
[4]; 14 days
  Absolute cell counts 14 days: 1.70E+06
  Relative cell counts 14 days: 0.5484
[4]; 28 days
  Absolute cell counts 28 days: 1.10E+06
  Relative cell counts 28 days: 0.3548
[5]; 2 days
  Absolute cell counts 2 days: 1
  Relative cell counts 2 days: 0.0000
[5]; 7 days
  Absolute cell counts 7 days: 1
  Relative cell counts 7 days: 0.0000
[5]; 14 days
  Absolute cell counts 14 days: 1
  Relative cell counts 14 days: 0.0000
[5]; 28 days
  Absolute cell counts 28 days: 1
  Relative cell counts 28 days: 0.0000
[6]; 2 days
  Absolute cell counts 2 days: 9.30E+04
  Relative cell counts 2 days: 0.0211
[6]; 7 days
  Absolute cell counts 7 days: 9.50E+02
  Relative cell counts 7 days: 0.0002
[6]; 14 days
  Absolute cell counts 14 days: 1
  Relative cell counts 14 days: 0.0000
[6]; 28 days
  Absolute cell counts 28 days: 1
  Relative cell counts 28 days: 0.0000
[7]; 2 days
  Absolute cell counts 2 days: 2.10E+03
  Relative cell counts 2 days: 0.0010
[7]; 7 days
  Absolute cell counts 7 days: 1
  Relative cell counts 7 days: 0.0000
[7]; 14 days
  Absolute cell counts 14 days: 1
  Relative cell counts 14 days: 0.0000
[7]; 28 days
  Absolute cell counts 28 days: 1
  Relative cell counts 28 days: 0.0000
